Entries after “also recorded” stand apart in the source; their conditions may differ.
Columns and labels:
[1] = tested on: pernicious anemia patients presenting with tobacco amblyopia (optic neuropathy); conditions: four patients; parenteral; cyanocobalamin 0.25-1 mg per month, then changed to hydroxocobalamin; cited from earlier work
[2] = cited from earlier work
[3] = tested on: geriatric patients; conditions: cited from earlier work
[4] = series of up to 12 injections with 5 mg; cited from earlier work
[5] = tested on: sleep-waking rhythm disorders; conditions: 1.5 to 3 mg/day for 8 weeks, n=13; cited from earlier work
[6] = tested on: recurrent aphthous stomatitis (RAS) patients; experiment: Double-blind, placebo-controlled, randomized clinical trial of vitamin B12 in RAS; type: in vivo, human
[7] = tested on: recurrent aphthous stomatitis (RAS) patients; conditions: cited from earlier work
[8] = tested on: dialysis patients; conditions: cited from earlier work
[9] = tested on: recurrent aphthous stomatitis (RAS) patients; experiment: Clinical experience: 15 RAS patients treated with vitamin B12 over four years; type: in vivo, human
Method: Fifteen patients suffering from RAS were treated with vitamin B12 in our clinics over a period of four years. In most cases they have presented to the clinic with unrelated symptoms, and the oral ulcers were incidental findings on physical examination. Patients were asked whether oral ulcers were a recurring problem. Before initiating vitamin B12 therapy, a complete blood count was done and plasma vitamin B12 and folic acid levels were assessed by routine procedures.
We used one of two therapeutic regimens: • IM injections of vitamin B12 (1000 mcg weekly for the first month, and then 1000 mcg monthly as maintenance therapy) for patients with serum vitamin B12 level below 100 pg/ml, for patients with peripheral neuropathy or macrocytic anemia, and for patients coming from a low socioeconomic level (in Israel, IM vitamin B12 treatment is cheaper than oral vitamin B12). • 2. One sublingual vitamin B12 tablet (1000 mcg) per day. • No other treatment was given for RAS throughout the treatment and follow-up periods. The follow-up period ranged from 3 months to 4 years.

Question: With cyanocobalamin as the substance, how does the “Effect on haematological and visual abnormalities” value [1] read?
Answer: restored the haematological, but not the visual abnormalities

Question: And the “Carcinogenic, mutagenic or teratogenic potential” value ([2]; Ellenbogen & Cooper, 1991)?
Answer: no reports attributing carcinogenic or mutagenic or teratogenic potential

Question: And the Cognitive functions ([3]; 1 mg intramuscular weekly for 1 month, then monthly for minimum 6 months)?
Answer: cognitive recovery in some patients

Question: And the Adverse effects ([3]; 1 mg intramuscular weekly then monthly)?
Answer: no adverse effects were reported

Question: Which “Effect on haematological and visual abnormalities” value [1] does the source give for hydroxocobalamin here?
Answer: the visual impairment also improved

Question: What about the “Acne formation (cases)” value [4] of the same substance?
Answer: Ten

Question: What does the source list for vitamin B12 (cobalamin)?
Answer: Adverse effects [5]: no adverse effects recorded; Safety and effectiveness of vitamin B12 therapy for RAS ([6]; double-blind, placebo-controlled, randomized): confirmed the safety and effectiveness; also recorded: established the safety and effectiveness; Dependence of patient outcome on initial level of vitamin B12 ([6]; pain, number of ulcers, duration of outbreak): did not depend on initial level of vitamin B12; Clinical response of RAS to vitamin B12 administration ([7]; three patients with low serum vitamin B12): rapid improvement and complete recovery within several weeks; Recurrence of RAS at six months' follow up ([7]; three patients): no recurrence of RAS; Adverse effects of long-term oral and parenteral supplementation ([2]; 1-5 mg every fortnight or month, up to at least 5 years, patients with compromised absorption): without any identified adverse effects; Adverse effects of excess vitamin B12 intake from food or supplements ([2]; healthy individuals, EC Scientific Committee on Food opinion): no adverse effects; Adverse effects in replacement therapy ([2]; oral or intramuscular dosages between 1-5 mg): no supportive evidence of adverse effects; Adverse effects of prolonged oral treatment ([2]; up to 1000 mcg/day orally, patients with compromised B12 absorption): adverse effects have not been reported; Adverse effects ([8]; 2.5 mg vitamin B12 in multivitamin preparation, 3 years): no adverse effects were reported; Serum vitamin B12 levels at the end of the treatment period ([8]; 106 patients, multivitamin preparation with 2.5 mg vitamin B12 at end of each dialysis period during 3 years): 4 times greater than normal; Outcome of treatment by initial vitamin B12 level (deficient or borderline vs normal) ([9]; 2 deficient, 3 marginal, 10 normal level patients): no difference in the outcome of treatment; Frequency of RAS during treatment (episodes/month), Mean ([9]; 15 RAS patients, IM 1000 mcg weekly then monthly or sublingual 1000 mcg per day, mean treatment 10.8 ± 9.7 months, before treatment 1.5 ± 1.2): 0.1 ± 0.3 episodes/month; Frequency of RAS during treatment (episodes/month), Range ([9]; 15 RAS patients, before treatment range 0.3-4.0): 0-1.0 episodes/month; Aphthous ulcers in two non-adherent patients once they received regular IM injections ([9]; IM vitamin B12): disappeared completely; Patients reporting pronounced reduction in the frequency and severity of RAS episodes ([9]; of 15 patients): four

Reference: patent US20100130441A1, “USE OF VITAMIN B12 FOR TREATMENT OF MUCOSAL LESIONS” (priority 2007, published 2010)
